Entries after “also recorded” stand apart in the source; their conditions may differ.
Columns and labels:
[1] = test system: MCF7; assay: SRB antiproliferation assay; assay type: cell-based; conditions: Homo sapiens, 48 h, read-out: Antiproliferative activity (IC50) MCF7
[2] = target: T1, EGFR (Homo sapiens, UniProt P00533); assay: RTK in vitro enzymatic assay; assay type: biochemical; conditions: 20 μM ATP
T1 construct: purchased Reaction Biology Corporation

[3] = test system: H2228; assay: SRB antiproliferation assay; assay type: cell-based; conditions: Homo sapiens, NCI-H2228, 48 h, ALK-addicted cells, read-out: Antiproliferative activity (IC50) H2228
[4] = target: T2, CYP2D6 (Homo sapiens, UniProt P10635); assay: CYP450 inhibition assay; assay type: in vitro ADME; conditions: human recombinant enzyme
T2 construct: purchased Reaction Biology Corporation; host or cells: CYP cDNA baculovirus expression systems

[5] = target: T3, CYP3A4 (Homo sapiens, UniProt P08684); assay: CYP450 inhibition assay; assay type: in vitro ADME; conditions: human recombinant enzyme
T3 construct: purchased Reaction Biology Corporation; host or cells: CYP cDNA baculovirus expression systems

[6] = test system: phosphorylation level of Y1604 on ALK; assay: Western blot of ALK phosphorylation in H2228 cells; assay type: cell-based, human; conditions: 6 h, 3b 2 µM, 3c 4 µM
Source text: (§1) Figure 4. Effect of test compounds on H2228 cells. […] (A) Western blots of phosphorylated tyrosine residue 1640 on ALK as well as acetylated (Ac) α-tubulin and histone H3 with their corresponding total proteins for normalisation. GAPDH was used as a loading control. (B) Quantification of western blotting results using Image J. Error bars indicate ± S.D.E. *p-Value ≤ 0.05, **p-value ≤ 0.01, ***p-value ≤ 0.001.
(§2) Treated cells were washed three times with ice-cold phosphate-buffered saline and lysed in lysis buffer containing 100 mM Tris-HCl, 12 mM sodium deoxycholate, 12 mM sodium lauroylsarcosinate, and protease inhibitor cocktail (BioTools). Cells were heated in lysis buffer at 95 °C for 5 min and then the cell membrane was broken up by sonication (Bioruptor). Cellular debris and unbroken cells were removed by centrifugation (12,500 × g for 30 min, 4 °C). Protein concentration was determined using the bicinchoninic acid assay (Thermo). Cell extracts (20 μg) were resolved by 12% sodium dodecyl sulfate-polyacrylamide gel electrophoresis (SDS-PAGE), transferred to PVDF membranes, and probed separately with antibodies for Ac-histone H3, Ac-α-tubulin, histone H3, α-tubulin, HDAC1, HDAC6, HDAC8 and GAPDH. The antibodies of GAPDH, HDAC1, and HDAC8 were purchased from ABclonal and all other antibodies were from Cell Signalling Technology. Antibody signals were detected using an enhanced chemiluminescence system.

[7] = test system: human A549 tumour xenografts; assay: Human A549 tumour xenograft model; assay type: in vivo
Procedure: […]. Xenografts were implanted by subcutaneous injection of A549 cells and then treatment with various dosages of 3b (0, 5, 10, 20 mg/kg by intraperitoneal injection once daily for 21 days) was initiated when tumour size was 10–20 mm^3. […] Moreover, tumour suppression continued for an additional 10 days after treatment was suspended.
The procedure for establishing tumour xenografts and the dosing of 3b were carried out in accordance with the National Taiwan University College of Medicine Laboratory Animal Centre ([…]) care and use committee. Female nude mice (BALB/cAnN.Cg-Foxn1nu/CrlNarl, 6–8 weeks old) were purchased from the National Laboratory Animal Centre (Taiwan). Mice were implanted subcutaneously in the right flank with 1 × 10^7 A549 cells (human NSCLC, in 1:1 PBS/Geltrex, 200 μL). Treatments were initiated when tumours were 10–20 mm^3 and continued for 21 consecutive days. Mice were randomly assigned to cohorts (n = 5 per group). Compound 3b (10 mg/kg) or vehicle (PBS + 5% DMSO + 10% Pharmasolve) was administered once daily (qd) via intraperitoneal (i.p.) injection. Tumour volume and body weight were assessed daily for 31 days from initiation of treatment. Calliper measurements of tumours were converted to mean tumour volume using the formula: 0.5 × (length × width[2]).

[8] = target: T4, IGF1R (Homo sapiens, UniProt P08069); assay: RTK in vitro enzymatic assay; assay type: biochemical; conditions: 20 μM ATP
T4 construct: purchased Reaction Biology Corporation

[9] = target: T5, HDAC11 (Homo sapiens, UniProt Q96DB2); assay: HDAC inhibition assay (fluorogenic peptide, Reaction Biology); assay type: biochemical; conditions: tested once, ten-dose starting at 30 µM
T5 construct: purchased Reaction Biology Corporation; host or cells: baculovirus expression system in SF9 cells
T5 sequence (Q96DB2 1-347): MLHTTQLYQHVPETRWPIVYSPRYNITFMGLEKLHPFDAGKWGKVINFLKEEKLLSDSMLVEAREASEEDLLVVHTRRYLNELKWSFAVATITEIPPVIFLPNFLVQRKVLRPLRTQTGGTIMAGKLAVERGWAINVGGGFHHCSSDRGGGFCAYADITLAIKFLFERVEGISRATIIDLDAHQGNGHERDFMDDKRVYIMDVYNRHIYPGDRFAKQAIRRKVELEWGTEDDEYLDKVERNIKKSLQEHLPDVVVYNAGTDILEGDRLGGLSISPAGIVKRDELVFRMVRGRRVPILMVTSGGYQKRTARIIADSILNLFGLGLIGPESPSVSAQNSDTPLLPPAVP

[10] = test system: HepG2; assay: SRB antiproliferation assay; assay type: cell-based; conditions: Homo sapiens, 48 h, read-out: Antiproliferative activity (IC50) HepG2
[11] = target: T6, CYP2C19 (Homo sapiens, UniProt P33261); assay: CYP450 inhibition assay; assay type: in vitro ADME; conditions: human recombinant enzyme
T6 construct: purchased Reaction Biology Corporation; host or cells: CYP cDNA baculovirus expression systems
Procedure: Assays were performed by Reaction Biology Corporation. […] CYP assays used human recombinant CYP1A2, CYP2C9, CYP2C19, CYP2D6, and CYP3A4 expressed in CYP cDNA baculovirus expression systems. […] Substrates used were 3-cyano-7-ethoxycoumarin for CYP1A2, 2C19, and 2D6; Vivid OOMR Substrate for CYP2C9; and Vivid BOMR Substrate for CYP3A4. hERG inhibition assays involved a binding competition between the tested compounds and a fluorescently labelled compound tracer (Predictor hERG Tracer Red) for membrane-bound hERG (Predictor hERG Membrane). E-4031 served as the positive control.

[12] = test system: acetylated histone H3, a substrate of class I HDAC; assay: Western blot of acetylated histone H3 in H2228 cells; assay type: cell-based, human; conditions: 6 h, 3b 2 µM
Source text: as §1
as §2, with “The antibodies of GAPDH, HDAC1, and HDAC8 were purchased from ABclonal and all other antibodies were from Cell Signalling Technology.” left out

[13] = test system: protein expression level of HDAC1, HDAC6, or HDAC8; assay: Western blot of HDAC protein expression; assay type: cell-based, human; conditions: western blot after treatment (supplemental Figure S3)
Procedure: as §2
Figure S3. Western blots of HDAC1, HDAC6, and HDAC8 after drug treatment and vehicle control
activity was assessed by MTS assay, and the concentration of inhibitors was determined to be half of their
was tested five times, and the results were normalized to 1. (blank) […]

[14] = target: T7, ALK L1196M (Homo sapiens, UniProt Q9UM73, L1196M); assay: ALK mutant in vitro enzymatic assay; assay type: biochemical; conditions: 20 μM ATP
T7 construct: purchased Reaction Biology Corporation
T7 sequence (Q9UM73 19-1620 L1196M): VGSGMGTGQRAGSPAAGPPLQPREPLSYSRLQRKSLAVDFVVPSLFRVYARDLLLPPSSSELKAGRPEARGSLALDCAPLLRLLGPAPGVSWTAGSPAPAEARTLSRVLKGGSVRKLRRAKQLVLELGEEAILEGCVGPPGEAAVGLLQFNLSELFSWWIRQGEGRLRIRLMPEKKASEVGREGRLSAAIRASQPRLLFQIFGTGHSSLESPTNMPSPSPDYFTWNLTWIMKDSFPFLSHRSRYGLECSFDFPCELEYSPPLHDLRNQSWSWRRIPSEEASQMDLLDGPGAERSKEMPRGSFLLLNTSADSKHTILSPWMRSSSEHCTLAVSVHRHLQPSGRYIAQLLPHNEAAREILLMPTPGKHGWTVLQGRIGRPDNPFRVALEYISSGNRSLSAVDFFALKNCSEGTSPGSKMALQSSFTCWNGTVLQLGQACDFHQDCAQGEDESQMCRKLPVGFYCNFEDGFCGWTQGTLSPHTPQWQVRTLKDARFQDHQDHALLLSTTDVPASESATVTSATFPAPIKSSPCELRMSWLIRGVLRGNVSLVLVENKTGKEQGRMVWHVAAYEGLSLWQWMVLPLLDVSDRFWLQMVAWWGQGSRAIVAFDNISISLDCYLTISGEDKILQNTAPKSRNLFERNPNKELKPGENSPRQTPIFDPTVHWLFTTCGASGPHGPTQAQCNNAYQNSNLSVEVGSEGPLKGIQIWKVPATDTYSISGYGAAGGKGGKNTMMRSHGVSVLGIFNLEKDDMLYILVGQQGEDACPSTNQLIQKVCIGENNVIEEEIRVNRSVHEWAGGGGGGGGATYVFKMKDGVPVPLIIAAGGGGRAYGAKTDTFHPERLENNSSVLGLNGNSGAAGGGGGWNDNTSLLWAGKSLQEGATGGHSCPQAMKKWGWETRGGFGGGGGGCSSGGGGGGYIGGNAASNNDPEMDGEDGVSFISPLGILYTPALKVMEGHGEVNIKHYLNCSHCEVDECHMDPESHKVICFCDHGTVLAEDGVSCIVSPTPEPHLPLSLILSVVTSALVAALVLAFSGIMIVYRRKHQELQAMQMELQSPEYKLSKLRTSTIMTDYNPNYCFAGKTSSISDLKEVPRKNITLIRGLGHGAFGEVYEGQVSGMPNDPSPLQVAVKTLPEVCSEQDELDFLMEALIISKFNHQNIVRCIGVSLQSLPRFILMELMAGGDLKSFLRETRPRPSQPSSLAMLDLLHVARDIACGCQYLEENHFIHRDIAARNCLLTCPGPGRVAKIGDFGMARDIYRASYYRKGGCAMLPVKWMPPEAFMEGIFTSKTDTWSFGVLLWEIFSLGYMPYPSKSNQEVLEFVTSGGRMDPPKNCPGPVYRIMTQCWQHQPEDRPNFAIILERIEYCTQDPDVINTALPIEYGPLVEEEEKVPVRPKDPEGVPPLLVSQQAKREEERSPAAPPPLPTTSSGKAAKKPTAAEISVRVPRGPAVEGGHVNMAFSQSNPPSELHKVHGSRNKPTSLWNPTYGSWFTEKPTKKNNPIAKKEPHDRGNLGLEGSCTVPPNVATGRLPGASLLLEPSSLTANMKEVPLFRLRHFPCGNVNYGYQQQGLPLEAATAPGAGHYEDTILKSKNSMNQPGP

T1 sequence (P00533 25-1210): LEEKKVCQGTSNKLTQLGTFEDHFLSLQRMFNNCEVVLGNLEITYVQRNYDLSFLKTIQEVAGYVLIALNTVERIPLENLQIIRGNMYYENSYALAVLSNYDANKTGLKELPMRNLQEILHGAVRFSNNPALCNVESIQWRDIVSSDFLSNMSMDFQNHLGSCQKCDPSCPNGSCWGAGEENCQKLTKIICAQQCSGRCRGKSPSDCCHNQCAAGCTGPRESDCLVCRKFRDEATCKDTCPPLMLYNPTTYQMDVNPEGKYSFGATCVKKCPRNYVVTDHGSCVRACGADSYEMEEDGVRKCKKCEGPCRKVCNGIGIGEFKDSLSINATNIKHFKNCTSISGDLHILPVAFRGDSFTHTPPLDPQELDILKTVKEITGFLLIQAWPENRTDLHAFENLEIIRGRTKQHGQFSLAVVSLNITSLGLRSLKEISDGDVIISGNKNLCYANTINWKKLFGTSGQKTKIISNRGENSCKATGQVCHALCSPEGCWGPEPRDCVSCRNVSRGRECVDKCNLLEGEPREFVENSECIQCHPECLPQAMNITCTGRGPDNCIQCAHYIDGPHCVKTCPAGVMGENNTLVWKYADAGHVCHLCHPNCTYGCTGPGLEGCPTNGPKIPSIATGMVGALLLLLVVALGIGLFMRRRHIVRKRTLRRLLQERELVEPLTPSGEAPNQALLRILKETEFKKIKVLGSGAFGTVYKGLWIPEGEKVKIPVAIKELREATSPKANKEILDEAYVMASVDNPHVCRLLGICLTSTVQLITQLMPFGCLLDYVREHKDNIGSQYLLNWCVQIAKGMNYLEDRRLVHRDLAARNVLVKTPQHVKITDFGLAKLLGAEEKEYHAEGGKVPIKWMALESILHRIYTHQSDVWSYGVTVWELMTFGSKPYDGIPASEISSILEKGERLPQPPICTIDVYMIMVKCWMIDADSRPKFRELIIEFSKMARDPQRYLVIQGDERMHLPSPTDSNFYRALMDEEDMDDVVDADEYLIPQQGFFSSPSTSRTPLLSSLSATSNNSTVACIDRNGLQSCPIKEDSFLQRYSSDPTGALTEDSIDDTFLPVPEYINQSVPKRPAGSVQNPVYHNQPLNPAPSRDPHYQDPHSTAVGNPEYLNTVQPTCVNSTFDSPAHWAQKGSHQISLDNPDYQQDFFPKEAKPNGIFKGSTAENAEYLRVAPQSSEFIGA
T6 sequence (P33261 whole entry): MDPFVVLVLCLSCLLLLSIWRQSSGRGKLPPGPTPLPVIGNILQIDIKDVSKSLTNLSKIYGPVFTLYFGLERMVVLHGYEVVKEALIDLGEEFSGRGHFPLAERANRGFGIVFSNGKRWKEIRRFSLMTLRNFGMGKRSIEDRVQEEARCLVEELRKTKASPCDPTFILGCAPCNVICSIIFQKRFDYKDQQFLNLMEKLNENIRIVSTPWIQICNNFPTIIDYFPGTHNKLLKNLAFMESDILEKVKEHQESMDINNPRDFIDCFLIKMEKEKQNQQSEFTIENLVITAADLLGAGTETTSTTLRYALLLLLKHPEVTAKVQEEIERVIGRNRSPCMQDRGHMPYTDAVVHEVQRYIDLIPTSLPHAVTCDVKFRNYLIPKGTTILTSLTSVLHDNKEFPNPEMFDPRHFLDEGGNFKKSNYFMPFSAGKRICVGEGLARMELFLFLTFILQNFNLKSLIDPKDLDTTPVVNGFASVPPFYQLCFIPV
T3 sequence (P08684 whole entry): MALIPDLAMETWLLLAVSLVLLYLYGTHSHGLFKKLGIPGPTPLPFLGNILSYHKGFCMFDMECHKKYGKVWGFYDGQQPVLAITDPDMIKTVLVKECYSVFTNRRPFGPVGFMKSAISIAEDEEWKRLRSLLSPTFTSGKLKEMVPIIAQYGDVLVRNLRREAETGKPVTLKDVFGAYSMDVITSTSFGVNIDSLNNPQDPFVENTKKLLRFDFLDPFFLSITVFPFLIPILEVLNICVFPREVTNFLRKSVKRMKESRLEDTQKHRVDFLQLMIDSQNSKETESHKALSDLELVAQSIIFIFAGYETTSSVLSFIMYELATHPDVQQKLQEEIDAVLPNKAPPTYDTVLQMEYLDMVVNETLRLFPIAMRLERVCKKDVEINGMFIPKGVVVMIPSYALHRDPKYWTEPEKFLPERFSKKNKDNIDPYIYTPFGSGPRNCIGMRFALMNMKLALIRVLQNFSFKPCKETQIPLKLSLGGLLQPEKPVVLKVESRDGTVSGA
T2 sequence (P10635 whole entry): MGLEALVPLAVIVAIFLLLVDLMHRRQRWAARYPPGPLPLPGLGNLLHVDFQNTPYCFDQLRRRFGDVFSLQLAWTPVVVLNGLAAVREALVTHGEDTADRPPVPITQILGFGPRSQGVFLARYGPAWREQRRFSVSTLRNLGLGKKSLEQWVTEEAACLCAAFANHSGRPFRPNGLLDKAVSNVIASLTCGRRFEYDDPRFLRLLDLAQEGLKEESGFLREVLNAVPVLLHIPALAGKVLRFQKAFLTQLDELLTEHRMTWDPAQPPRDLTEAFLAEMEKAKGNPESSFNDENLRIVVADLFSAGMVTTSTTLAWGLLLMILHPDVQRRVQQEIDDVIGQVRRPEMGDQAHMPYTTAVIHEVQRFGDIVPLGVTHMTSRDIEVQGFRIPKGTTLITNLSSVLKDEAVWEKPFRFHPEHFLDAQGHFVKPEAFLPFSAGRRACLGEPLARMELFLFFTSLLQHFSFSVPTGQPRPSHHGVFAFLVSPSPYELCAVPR

## CC(C)NC(=O)C1CCC(n2c(=NC(=O)c3ccccc3)[nH]c3cc(C=CC(=O)NO)ccc32)CC1 [Compound 3b, (E)-N-(5-((E)-3-(Hydroxyamino)-3-oxoprop-1-en-1-yl)-1-((1S,4S)-4-(isopropylcarbamoyl)cyclohexyl)-1H-benzo[d]imidazol-2(3H)-ylidene)benzamide]
[1]
  IC50: 0.55 ± 0.01 µM
[2]
  IC50: > 10 µM
[3]
  IC50: 0.44 ± 0.06 µM
[4]
  IC50: > 10 µM
[5]
  IC50: 9.37 µM
[6]
  phosphorylation level of Y1604 on ALK: significantly decreased
[7]; 5 mg/kg i.p. once daily for 21 days
  effect on tumour volume: no significant effect
[7]; 10 mg/kg i.p. once daily for 21 days, day 21 of treatment
  decrease in mean tumour volume: 68%
[7]; 10 mg/kg i.p. once daily for 21 days, day 31 (10 days after treatment suspended)
  decrease in mean tumour volume: 80%
[7]; 20 mg/kg i.p. once daily for 21 days, day 21 of treatment
  decrease in mean tumour volume: 85%
[7]; 20 mg/kg i.p. once daily for 21 days, day 31 (10 days after treatment suspended)
  decrease in mean tumour volume: 86%
[7]; 5, 10, 20 mg/kg i.p. once daily for 21 days, any treatment group
  mean body weight: negligible effect; also recorded: not significantly affected
[8]
  IC50: 4.84 µM
[9]
  IC50: 16.6 µM
[10]
  IC50: 0.59 ± 0.09 µM
[11]
  IC50: 7.86 µM
[12]
  acetylated histone H3 level: slightly increased
[13]
  protein expression level of HDAC1, HDAC6, or HDAC8: not perturbed
[14]
  IC50: 0.0049 µM
